According to patent publication US20250120975A1, “INTEGRIN INHIBITORS FOR TREATMENT OF PRIMARY SCLEROSING CHOLANGITIS” (Pliant Therapeutics, Inc., priority 2023, published 2025):
Entries after “also recorded” stand apart in the source; their conditions may differ.

Experiments:
[1] = tested on: BALB/c.Mdr2−/− mouse model of biliary fibrosis; assay: Relative and total liver collagen (hydroxyproline); assay type: in vivo; settings: 6 weeks
Source text: The tissue source is BALBc.Mdr2-/−male mice that were 6 weeks old. The Mdr2(abcb4)−/− mouse model of sclerosing cholangitis has been previously described and is a model of spontaneously progressive hepatic fibrosis in mice with deletion of the biliary phospholipid flippase on fibrosis-susceptible background (Mdr2(abcb4)^−/−. BALB/c mouse). See N. Ikenaga, et al. (2015) Am J Pathol. 185 (2): 325-334, the entire contents of which are hereby incorporated by reference in their entirety.
(S)-4-((2-methoxyethyl)(4-(5,6,7,8-tetrahydro-1,8-naphthyridin-2-yl)butyl)amino)-2-(quinazolin-4-ylamino)butanoic acid (or PBS) was dosed once daily orally at 100 mg/kg, 300 mg/kg or 1000 mg/kg (see Table B-2) starting at 6 weeks after birth of the subject and continuing for 6 weeks. All animals were euthanized and necropsied at the end of week 12.
Liver collagen was determined biochemically as hydroxyproline (OHP). See N. Ikenaga, et al. (2015) Am J Pathol. 185 (2): 325-334, the entire contents of which are hereby incorporated by reference in their entirety. Two fresh liver pieces from the left and right liver lobe (120-160 mg each) were hydrolyzed in 2 mL 6N HCl at a temperature of 110° C. for 16 h. Moreover, 20 μL of hydrolysate was evaporated under N2 and OHP was quantified using the chloramine-T/dimethylamino-benzaldehyde method. OHP levels were used to calculate relative (per 100 mg of wet liver) and total (obtained by multiplying liver weights with relative hepatic OHP) hepatic collagen content.

[2] = tested on: subjects with PSC and suspected liver fibrosis; assay: Phase 2a INTEGRIS-PSC: Enhanced Liver Fibrosis (ELF) score and components; assay type: in vivo, human
Procedure: The Enhanced Liver Fibrosis (ELF) score is a set of markers for extracellular matrix (ECM) activity. Three serum markers are measured, tissue inhibitor of metalloproteinases 1 (TIMP-1), amino-terminal propeptide of type III procollagen (PIIINP) and hyaluronic acid (HA). The measurements are combined in an algorithm to provide a score that correlates well with the degree of liver fibrosis (Sharma, C. et al., Journal of Gastroenterology and Hepatology, 36:1788-1802(2021), incorporated by reference herein in its entirety). A change in ELF score greater than or equal to 0.19 is indicative of clinical progression within two years (Muir A. J. et al., Hepatology, 2019 February; 69 (2): 684-698, incorporated by reference herein in its entirety). An ELF greater than or equal to 7.7 is considered moderate to severe fibrosis (Vesterhus M. et al., Hepatology, 2015 July; 62(1):188-97; incorporated by reference herein in its entirety).
In Parts 1 and 2, plasma, serum, and urine biomarker samples were obtained at predetermined times as indicated in the Schedule of Events (see Table B-4). In Part 3, plasma and serum biomarker samples were obtained at predetermined times as indicated in the Schedule of Events (see Table B-5 and Table B-6). These samples were used to measure specific proteins, nucleotides and/or metabolites that were elevated in subjects with fibrosis, and/or pharmacodynamic markers that could change with inhibition of integrins αVβ6 and αVβ1. The samples were also used to perform exploratory investigations using metabolomic or proteomic methods for use in future studies in subjects with fibrotic diseases.
(§1) Absolute and relative changes from Baseline in liver fibrosis biomarkers (including PRO-C3 and ELF) and in ALP are presented in numerical and graphical forms by treatment and dose utilizing data from the timepoints specified in the Schedule of Events. Changes from Baseline to Week 12(Parts 1 and 2) and Week 24 (Part 3) in magnetic resonance (MR)-based liver imaging are also evaluated, as well as changes in PROs.

[3] = tested on: subjects with PSC and suspected liver fibrosis; assay: Phase 2a INTEGRIS-PSC: gadoxetate contrast MRI of the liver; assay type: in vivo, human; settings: for MRI relative enhancement (gadoxetate) / time to arrival to the common bile duct (gadoxetate): Example B-5
Procedure: Imaging of the whole liver was performed by MRI prior to Baseline and at Week 12 (Parts 1 and 2) and will be performed at Baseline, at Week 12, and at Week 24 (Part 3 only), and will be read centrally utilizing dynamic liver imaging in combination with the contrast agent Gadoxetate disodium and a 4-hour fast (no food or drink, except water). Any clinically significant incidental findings are evaluated as potential AEs.
as §1

[4] = tested on: PCLivS from human liver tissue with biliary fibrosis (PSC, PBC); assay: Fibrotic gene expression (NanoString) in precision cut liver slices; assay type: cell-based
[5] = 1000 mg/kg, relative to the vehicle control
[6] = all doses, Week 12, MRI sub-study, Example B-4
[7] = ≥1 μM, PCLivS from 10 livers with biliary fibrosis (6 PSC, 4 PBC), 2 days

In the case of `COCCN(CCCCc1ccc2c(n1)NCCC2)CC[C@H](Nc1ncnc2ccccc12)C(=O)O` [Bexotegrast, (S)-4-((2-methoxyethyl)(4-(5,6,7,8-tetrahydro-1,8-naphthyridin-2-yl)butyl)amino)-2-(quinazolin-4-ylamino)butanoic acid], the “reduction in total hepatic collagen” value ([1]; 1000 mg/kg PO/QD) is reported as “approximately 75%”, the “relative hepatic collagen content (normalized to liver weight)” value [1, 5] is reported as “decreased” and the “total hepatic collagen content” value [1, 5] is reported as “decreased”. The “ELF score components TIMP-1, HA, PIIINP vs placebo” value ([2]; 160 mg, Week 12, Example B-3) was “achieved statistical significance”, the “ELF score, difference to placebo” value ([2]; 160 mg, Week 12, Example B-3) was “statistically significant difference” and the “reduction of the mean change in ELF score relative to placebo” value ([2]; 160 mg, Week 12, Example B-3) was 84%. For the same compound, the “ELF score relative to placebo” value ([2]; 320 mg, Week 12, Example B-4) was “reduction”, the “ELF score, overall population” value ([2]; 320 mg, Week 12 to Week 24, Example B-5) was “no increase; also recorded: stable ELF score” and the “ELF score, patients at high risk (baseline ELF >9.8)” value ([2]; 320 mg, Week 24, compared to an increase in the placebo group, Example B-5) was “reduction in ELF score”. For the same compound, the “ELF score components (TIMP-1, PIIINP, HA) compared to placebo” value ([2]; 40, 80, 160, 320 mg, Week 12, Example B-4) was “generally reduced”, the “ELF score relative to placebo” value ([2]; all doses (40, 80, 160 mg), Week 12, Example B-3) was “reduced” and the “ELF scores relative to placebo” value ([2]; all doses (40, 80, 160, 320 mg), Week 12, Example B-4) was “reduced”. The “MRI relative enhancement (gadoxetate)” value ([3]; 320 mg, Week 12, MRI sub-study) was “increased relative enhancement”, the “time to arrival to the common bile duct (gadoxetate)” value ([3]; 320 mg, Week 12, MRI sub-study) was “decreased time to arrival” and the “MRI imaging: hepatocyte function and bile flow relative to placebo” value ([3]; 320 mg, Week 12, Example B-4) was “evidence of improved hepatocyte function and bile flow”. The “MRI relative enhancement (gadoxetate)” value ([3]; 320 mg, Week 24, MRI sub-study) was “further increase in relative enhancement”, the “time to arrival to the common bile duct (gadoxetate)” value ([3]; 320 mg, Week 24, MRI sub-study) was “faster time to arrival” and the “change in Gadoxetate time of arrival in bile duct” value ([3]; all doses compared to placebo, Week 12, Example B-3) was “shorter”. For the same compound, the “MRI relative enhancement in whole liver (gadoxetate)” value ([3]; all doses, Baseline to Week 12, compared to a reduction in placebo, Example B-3) was “improvement in relative enhancement”, the “Gadoxetate relative enhancement (RE) compared to the placebo” value [3, 6] was “increase” and the “Gadoxetate time of arrival to the common bile duct compared to the placebo” value [3, 6] was “reduced”. For the same compound, the “inhibition of the TGF-β-driven COLIA2 expression” value ([4]; relative to inhibition with high dose ALK5 inhibitor, PCLivS from 10 livers) was no more than 43%, the “significant reduction in expression of COLIA2” value [4, 7] was 19% and the “significant reduction in expression of TGF-81” value [4, 7] was 24%. The “trend down in overall expression of COL3A1” value [4, 7] was 15%.
